Reference: ChEMBL document CHEMBL1201862, “PubChem BioAssay data set” (2004)
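Method: 48-hour compound exposure of cells in 96-well plates, five concentrations, linear interpolation of endpoints. GI50 is the concentration that inhibits growth by half.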 Active and inactive are the calls of the source. No stated cut-off is given here; in the data, active = GI50 up to about 1.1 µM and inactive = higher.

Columns and labels:
Assay in all cases: inhibition of tumour cell growth, NCI panel, 48 h
[1] = system: NCI-H460
[2] = system: SNB-19
[3] = system: NCI-H23
[4] = system: ACHN
[5] = system: A498
[6] = system: Malme-3M
[7] = system: HCC 2998
[8] = system: A549
[9] = system: RXF 393
[10] = system: SW-620
[11] = system: HOP-62
[12] = system: SF-295
[13] = system: T47D
[14] = system: UO-31
[15] = system: UACC-257
[16] = system: 786-0
[17] = system: HL-60
[18] = system: PC-3
[19] = system: KM12
[20] = system: OVCAR-8

Measured: GI50

CC1C=C(NCC2(CO)CCC2)N=C(N)N1 (configuration not stated)
inactive: [1] > 100 µM | [2] > 100 µM | [3] > 100 µM | [4] > 100 µM | [5] 91.6 µM | [6] > 100 µM | [7] > 100 µM | [8] > 100 µM | [9] > 100 µM | [10] > 100 µM | [11] > 100 µM | [12] > 100 µM | [13] > 100 µM | [14] > 100 µM | [15] > 100 µM | [16] > 100 µM | [17] > 100 µM | [18] > 100 µM | [19] > 100 µM | [20] > 100 µM

CC(=O)c1c2c(cc3c1CC1(Cc4cc5c(cc4C1)CCC5)C3)CCC2
inactive: [1] > 100 µM | [2] > 100 µM | [3] > 100 µM | [4] > 100 µM | [5] > 100 µM | [6] > 100 µM | [7] > 100 µM | [8] > 100 µM | [9] > 100 µM | [10] > 100 µM | [11] > 100 µM | [12] > 100 µM | [13] > 100 µM | [14] > 100 µM | [15] 63.8 µM | [16] > 100 µM | [17] > 100 µM | [18] > 100 µM | [20] > 100 µM

Nc1ccc2c(c1)C(=O)c1ccc(F)cc1-2
inactive: [1] > 100 µM | [2] > 100 µM | [3] > 100 µM | [4] > 100 µM | [5] > 100 µM | [7] > 100 µM | [8] > 100 µM | [9] 44.4 µM | [10] > 100 µM | [11] > 100 µM | [12] > 100 µM | [13] > 100 µM | [14] > 100 µM | [15] > 100 µM | [16] > 100 µM | [17] > 100 µM | [18] > 100 µM | [19] > 100 µM | [20] > 100 µM

Cc1c(C)c2c(c(N)c1C#N)C(=O)N(CCN1CCNCC1)C2=O
inactive: [1] 29.9 µM | [2] 49.3 µM | [4] 25.6 µM | [5] 22.2 µM | [6] 22.6 µM | [7] 31.6 µM | [8] 29.6 µM | [9] 22.4 µM | [10] 31.6 µM | [12] 31.5 µM | [13] 36.4 µM | [14] 28.6 µM | [15] 37.7 µM | [16] 25.4 µM | [17] 28.4 µM | [18] 18.4 µM | [19] 45.4 µM | [20] 30.8 µM

CSc1cc(Cl)c(C(=O)Nc2ccccc2)cc1S(=O)(=O)n1ccnc1O
inactive: [1] > 100 µM | [2] > 100 µM | [3] > 100 µM | [4] > 100 µM | [5] > 100 µM | [6] > 100 µM | [7] > 100 µM | [8] > 100 µM | [9] > 100 µM | [10] > 100 µM | [11] > 100 µM | [13] > 100 µM | [14] > 100 µM | [15] > 100 µM | [16] > 100 µM | [17] > 100 µM | [18] > 100 µM | [19] > 100 µM | [20] > 100 µM

Cc1n[nH]c(=O)n1/N=C/c1ccc([N+](=O)[O-])cc1
inactive: [1] > 100 µM | [3] > 100 µM | [4] > 100 µM | [5] > 100 µM | [6] > 100 µM | [7] > 100 µM | [8] > 100 µM | [9] 61.2 µM | [10] > 100 µM | [11] > 100 µM | [12] > 100 µM | [13] > 100 µM | [14] > 100 µM | [15] > 100 µM | [16] > 100 µM | [17] > 100 µM | [18] > 100 µM | [19] > 100 µM | [20] > 100 µM

COc1cc(C(SCc2ccccc2)SCc2ccccc2)ccc1O
inactive: [1] > 10 µM | [2] > 10 µM | [4] > 10 µM | [5] > 10 µM | [6] > 10 µM | [7] > 10 µM | [9] 9.4 µM | [10] > 10 µM | [11] > 10 µM | [12] > 10 µM | [13] 8.97 µM | [14] 7.06 µM | [16] > 10 µM | [17] > 10 µM | [18] > 10 µM | [19] > 10 µM | [20] > 10 µM

C[n+]1ccccc1/C=C/c1ccc2c(c1)OCO2
inactive: [1] > 10 µM | [2] > 10 µM | [3] > 10 µM | [4] > 10 µM | [5] > 10 µM | [6] > 10 µM | [7] > 10 µM | [8] 4.59 µM | [9] > 10 µM | [10] > 10 µM | [11] > 10 µM | [12] > 10 µM | [13] > 10 µM | [15] > 10 µM | [16] > 10 µM | [17] > 10 µM | [18] > 10 µM | [19] > 10 µM | [20] > 10 µM

O=C(/C=C/c1ccsc1)c1ccsc1
inactive: [1] 23.7 µM | [2] 20.2 µM | [3] 21.6 µM | [4] 20.4 µM | [5] 37.5 µM | [6] 26.4 µM | [7] 19.5 µM | [8] 38.2 µM | [10] 24.8 µM | [11] > 100 µM | [12] 40.7 µM | [13] 28.2 µM | [14] 15.4 µM | [15] 19.1 µM | [16] 21.4 µM | [17] 17 µM | [18] 19.8 µM | [19] 18.9 µM | [20] 26.6 µM

Clc1ccc(C(OCn2ccnc2)c2nc3ccccc3[nH]2)c(Cl)c1 (configuration not stated)
inactive: [1] 24.5 µM | [2] 89.3 µM | [3] 32.2 µM | [4] 26.4 µM | [5] 38.2 µM | [6] 88.9 µM | [7] 45.5 µM | [8] 43.4 µM | [10] 26.9 µM | [11] 92.9 µM | [12] 29.6 µM | [13] 39.1 µM | [14] 23.7 µM | [15] 35.5 µM | [16] 39 µM | [17] 22.1 µM | [18] 35.2 µM | [19] > 100 µM | [20] 52.8 µM

O=S(=O)(O)/C(=N\c1cccc(Cc2ccccc2)c1)Nc1cccc(Cc2ccccc2)c1
inactive: [2] 21.2 µM | [3] 16.4 µM | [4] 17.4 µM | [5] 22.4 µM | [6] 17.5 µM | [7] 18.8 µM | [8] 22.4 µM | [9] 16.4 µM | [10] 23.7 µM | [11] 32.6 µM | [12] 18.2 µM | [13] 15.8 µM | [14] 15.8 µM | [15] 24.2 µM | [16] 15.2 µM | [17] 33.4 µM | [18] 18.3 µM | [19] 17.3 µM | [20] 18.5 µM
